Experimental data: article PMC5762535, “Novel indazole-based small compounds enhance TRAIL-induced apoptosis by inhibiting the MKK7-TIPRL interaction in hepatocellular carcinoma” (Oncotarget, 2017)
Read-outs that look alike come from different tables or passages of the source.

Columns and labels:
caspase-3 and PARP = assay: Western blot of cleaved caspase-3 and PARP in Huh7 cells; format: cell-based, human; settings: lead compounds co-treated with TRAIL 100 ng/ml, TRAIL tested alone
Experimental: The cells were lysed in lysis buffer (50 mM Tris-HCl, pH 7.4, 150 mM NaCl, 1% Triton™ X-100, 0.1% SDS, 1 mM EDTA, 1 mM Na3VO4, 1 mM NaF, and protease inhibitor cocktail) and clarified by centrifugation at 14,000×g for 20 min at 4°C. The protein samples were then subjected to Western blotting with the indicated antibodies.

Huh7 cells = assay: MTT cell viability assay, Huh7 cells; format: cell-based, human
Experimental: (§1) Cell viability was assessed using a 3-(4,5-dimethylthiazol-2-yl)-2,5-diphenyltetrazolium bromide (MTT, Sigma-Aldrich, St. Louis, USA) assay. The cells were seeded at a density of 1 × 10^4 cells per well and treated with the lead compounds and/or TRAIL. After 24 or 48 h, MTT (2 mg/ml) was added to each well, and the absorbance was measured using a microplate reader (Bio-Rad, Hercules, USA) at 570 nm. The cell viability was calculated as the percentage of viable cells in the drug-treated group versus the untreated control using the following equation: cell viability (%) = [OD (drug)-OD (blank)]/[OD (control)-OD (blank)] × 100.

[1] = MTT cell viability assay, Huh7 cells; format: cell-based, human; settings: human, Huh7 cells; Huh7, MTT, 10 µM, 24 hrs, without TRAIL; Supplementary Table 3; read-out: Cell viability assay Compound only
Experimental: as §1

Pharmacokinetics in rats = format: in vivo, Sprague-Dawley rats; settings: rat; for AUC: male, Sprague-Dawley, plasma, after 24 h
Experimental: Male Sprague-Dawley rats anesthetized with ketamine were cannulated with polyethylene tubing in the femoral vein. A solution of lead compound (TRT-0029 or TRT-0173) was prepared by dissolving the compounds in a mixture of dimethyl sulfoxide (DMSO)/ polyethylene glycol 400 (PEG 400)/ distilled water (0.5: 4: 5.5), and was administered to rats by a bolus injection in the femoral vein. Blood samples were collected via the femoral vein 0, 2, 10, and 30 min, as well as 1, 2, 4, 6, 8, and 24 h after intravenous administration. For oral administration, blood was collected 0.25, 0.5, 1, 2, 4, 6, 8, and 24 h after treatment. The plasma fractions were prepared by centrifugation and were stored at −70°C before the liquid chromatography-tandem mass spectrometry (LC/MS/MS) analysis. The concentrations of target compound in the plasma were measured using LC-MS/MS (4000 QTRAP, AB SCIEX, Foster City, CA) in multiple reaction monitoring (MRM) mode. The PK parameters were determined with non-compartmental methods using Phoenix WinNolin (Pharsight, Mountain View, CA). The area under the plasma concentration-time curve (AUC) was calculated using the trapezoidal rule extrapolated to infinity. The terminal elimination half-life (t1/2), and the systemic clearance (CL) were obtained. The peak plasma concentration (Cmax) after oral administration was obtained by visual inspection of the plasma concentration-time plot of each rat.

HepG2 cells = assay: MTT cell viability assay, HepG2 cells; format: cell-based, human; settings: 10 µM TRT-0029 or 20 µM TRT-0173 plus TRAIL 100 ng/ml, 24 h
Experimental: as §1

caspase-3 = assay: Caspase 3 activity assay in Huh7 cells; format: cell-based, human; settings: each compound at its working concentration and time of the table
Experimental: The caspase 3 activity was measured using a caspase-3 luminescent assay kit (Promega, Madison, WI, USA), according to the manufacturer's instructions, and a luminescence plate reader (Molecular Devices Co., Sunnyvale, USA).

Huh7 tumor xenografts = assay: In vivo Huh7 xenograft assay; set-up: species or system BALB/c nude mice
Text: Five-week-old female BALB/c nude mice were purchased from SLC Japan and were maintained in accordance with the guidelines of the Institutional Review Committee for Animal Care and Use of the Korea Research Institute of Bioscience and Biotechnology. Protocol approval was obtained from the same committee.
Huh7 cells were harvested and subcutaneously injected (5 × 10^6 cells/mouse) into nude mice (N = 6/group for TRT-0173 or TRT-0029 experiments). When the tumor volume reached ~100 mm^3, the mice were divided into four groups and treated with vehicle, TRAIL (2.5 mg/kg, intraperitoneal), lead compound (TRT-0029 or TRT-0173, 30 mg/kg, intravenously), or lead compound (30 mg/kg, intravenously) combined with TRAIL (2.5 mg/kg, intraperitoneal) daily for 11 days (11 treatments in total). The tumor volumes were measured every 2 days for 11 days after treatment, and tumor volume was calculated according to the following equation: V (mm^3) = width^2 (mm^2) × length (mm)/2. Body weight and tumor mass were measured 11 days after treatment.

MKK7-TIPRL interaction = target: T1, MKK7-TIPRL interaction (Homo sapiens, UniProt O14733+O75663); assay: GST pull-down assay of MKK7-TIPRL in 293T cells; format: cell-based; settings: 10 μM TRT-0029 or 20 μM TRT-0173, 24 h
T1 sequence (O14733 1-419): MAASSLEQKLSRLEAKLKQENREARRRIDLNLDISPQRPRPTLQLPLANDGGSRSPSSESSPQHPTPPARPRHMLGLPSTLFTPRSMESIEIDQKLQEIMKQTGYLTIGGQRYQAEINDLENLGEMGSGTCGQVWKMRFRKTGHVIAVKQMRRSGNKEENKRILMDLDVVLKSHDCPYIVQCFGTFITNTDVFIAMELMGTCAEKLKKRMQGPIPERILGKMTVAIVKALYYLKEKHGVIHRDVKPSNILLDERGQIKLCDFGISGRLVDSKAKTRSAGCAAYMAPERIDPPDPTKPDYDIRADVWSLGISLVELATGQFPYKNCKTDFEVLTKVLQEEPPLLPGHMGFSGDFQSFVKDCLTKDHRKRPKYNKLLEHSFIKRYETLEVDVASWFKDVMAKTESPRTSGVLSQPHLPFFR
T1 sequence (O75663 1-272): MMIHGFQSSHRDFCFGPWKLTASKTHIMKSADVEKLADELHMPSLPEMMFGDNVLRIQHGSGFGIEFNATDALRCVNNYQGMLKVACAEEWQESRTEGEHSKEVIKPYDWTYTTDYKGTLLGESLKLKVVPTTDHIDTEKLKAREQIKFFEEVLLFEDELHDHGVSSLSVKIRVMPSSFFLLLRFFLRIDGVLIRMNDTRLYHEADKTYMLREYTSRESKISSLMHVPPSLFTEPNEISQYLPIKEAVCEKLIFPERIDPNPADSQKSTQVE
Experimental: The full-length cDNAs of human TIPRL and MKK7 were subcloned into the pCGN vector (W. Herr, Cold Spring Harbor Laboratory) and the pEBG vector containing a GST tag to construct the HA-tagged and the GST-tagged plasmids, respectively. 293T cells were transfected with expression vector constructs using the TurboFect Transfection Reagent (Thermo Fisher Scientific, Lafayette, USA) and then were lysed in RIPA buffer (50 mM Tris-HCl, 150 mM NaCl, 1% Triton™ X-100, 0.1% SDS, 1 mM EDTA, 1 mM Na3VO4, and 1 mM NaF) containing complete protease inhibitor cocktail (Roche Applied Science, Indianapolis, USA). Whole-cell extracts were incubated with Glutathione Sepharose 4B (GE Healthcare, Uppsala, Sweden), and the eluted GST-tagged proteins were subjected to Western blotting using the indicated antibodies.

SMILES: COc1ccc(S(=O)(=O)Nc2ccc3c(cnn3-c3ccc(F)cc3)c2)cc1 [TRT-0173]
- apoptosis signals (cleaved caspase-3, PARP) by Western blotting (caspase-3 and PARP): activated apoptosis signals
- reduction of cell viability of Huh7 cells by co-treatment with TRAIL, compared to TRAIL alone (Huh7 cells; 10 μM TRT-0029 or 20 μM TRT-0173 plus TRAIL, 24 h): ~90%
- viability at 10 µM (Huh7 cells; Homo sapiens, Huh-7, Huh7, MTT, 10 µM, 24 hrs, with TRAIL, Supplementary Table 3, read-out: Cell viability assay Compound + TRAIL): 7%
- effective working concentration (Huh7 cells; Huh7 cells, various doses with and without TRAIL (100 ng/ml), 24 h): 20 µM
- viability at 24 h, 10 µM [1]: 53%
- AUC (Pharmacokinetics in rats; iv, i.v. 5 mg/kg, read-out: AUC (i.v.)): 4270 ng·h/mL
- AUC (Pharmacokinetics in rats; po, p.o. 5 mg/kg, read-out: AUC (p.o.)): 1150 ng·h/mL
- oral availability (Pharmacokinetics in rats; 5 mg/kg i.v. and p.o.): 26.8%
- decrease of HepG2 viability by co-treatment with TRAIL (HepG2 cells): 53%
- Caspase 3 activity Compound + TRAIL/Compound (caspase-3): 2.10 ratio
- tumor volume / tumor growth at 11 days, compound + TRAIL compared with compound alone (Huh7 tumor xenografts; compound 30 mg/kg i.v. plus TRAIL 2.5 mg/kg i.p. daily): moderately inhibited tumor growth
- reduction of average tumor mass, lead compound + TRAIL (Huh7 tumor xenografts; compound 30 mg/kg i.v. plus TRAIL 2.5 mg/kg i.p. daily for 11 days, versus vehicle control): 42.2%
- interaction between MKK7 and TIPRL in GST pull-down assay, compared with untreated cells (MKK7-TIPRL interaction): significantly decreased the interaction
